Data on five compounds can be found in PubChem BioAssay AID1259407 (Chemical Carcinogenesis Research Information System (CCRIS), 2018).

The source made the active and inactive calls. No rule for the calls is given here.

For the series, the system named is CCRIS mutagenicity, Ames/micronucleus/aberration tests. Put plainly: CCRIS mutagenicity studies. The text has this: The CCRIS database contains chemical records with carcinogenicity, mutagenicity, tumor promotion, and tumor inhibition test results. It was developed by the National Cancer Institute (NCI). Data are derived from studies cited in primary journals, current awareness tools, NCI reports, and other sources. Test results have been reviewed by experts in carcinogenesis and mutagenesis.
CCRIS provides historical information from the years 1985 - 2011. It is no longer updated.
This is an archive assay for CCRIS mutagenicity studies.

Setting [1] is: Test System: AMES SALMONELLA TYPHIMURIUM, Strain/Indicator: TA98, Metabolic Activation: NONE, Method: PREINCUBATION
Setting [2] is: Test System: AMES SALMONELLA TYPHIMURIUM, Strain/Indicator: TA100, Metabolic Activation: NONE, Method: PREINCUBATION
Setting [3] is: Test System: AMES SALMONELLA TYPHIMURIUM, Strain/Indicator: TA98, Metabolic Activation: NONE, Method: STANDARD PLATE.
[4] abbreviates: Test System: AMES SALMONELLA TYPHIMURIUM, Strain/Indicator: TA98, Metabolic Activation: RAT, LIVER, S-9, AROCLOR 1254, Method: STANDARD PLATE.
[5] abbreviates: Test System: AMES SALMONELLA TYPHIMURIUM, Strain/Indicator: TA100, Metabolic Activation: NONE, Method: STANDARD PLATE.
Where [6] appears, read: Test System: AMES SALMONELLA TYPHIMURIUM, Strain/Indicator: TA100, Metabolic Activation: RAT, LIVER, S-9, AROCLOR 1254, Method: STANDARD PLATE.

As for `CCCCCCCCC`, the mutagenic call (Test System: AMES SALMONELLA TYPHIMURIUM, Strain/Indicator: TA97, Metabolic Activation: HAMSTER, LIVER, S-9, AROCLOR 1254 (10 OR 30%), Method: PREINCUBATION) is “inactive; negative”; the mutagenic call (Test System: AMES SALMONELLA TYPHIMURIUM, Strain/Indicator: TA97, Metabolic Activation: NONE, Method: PREINCUBATION) is “inactive; negative”; the mutagenic call (Test System: AMES SALMONELLA TYPHIMURIUM, Strain/Indicator: TA97, Metabolic Activation: RAT, LIVER, S-9, AROCLOR 1254 (10 OR 30%), Method: PREINCUBATION) was “inactive; negative”; the mutagenic call (Test System: AMES SALMONELLA TYPHIMURIUM, Strain/Indicator: TA98, Metabolic Activation: HAMSTER, LIVER, S-9, AROCLOR 1254 (10 OR 30%), Method: PREINCUBATION) was “inactive; negative”; the mutagenic call under setting [1] was “inactive; negative”; the mutagenic call (Test System: AMES SALMONELLA TYPHIMURIUM, Strain/Indicator: TA98, Metabolic Activation: RAT, LIVER, S-9, AROCLOR 1254 (10 OR 30%), Method: PREINCUBATION) is “inactive; negative”. Moreover, the mutagenic call is, setting by setting: (Test System: AMES SALMONELLA TYPHIMURIUM, Strain/Indicator: TA100, Metabolic Activation: HAMSTER, LIVER, S-9, AROCLOR 1254 (10 OR 30%), Method: PREINCUBATION) “inactive; negative”; under setting [2], “inactive; negative”; (Test System: AMES SALMONELLA TYPHIMURIUM, Strain/Indicator: TA100, Metabolic Activation: RAT, LIVER, S-9, AROCLOR 1254 (10 OR 30%), Method: PREINCUBATION) “inactive; negative”; (Test System: AMES SALMONELLA TYPHIMURIUM, Strain/Indicator: TA1535, Metabolic Activation: HAMSTER, LIVER, S-9, AROCLOR 1254 (10 OR 30%), Method: PREINCUBATION) “inactive; negative”; (Test System: AMES SALMONELLA TYPHIMURIUM, Strain/Indicator: TA1535, Metabolic Activation: NONE, Method: PREINCUBATION) “inactive; negative”; (Test System: AMES SALMONELLA TYPHIMURIUM, Strain/Indicator: TA1535, Metabolic Activation: RAT, LIVER, S-9, AROCLOR 1254 (10 OR 30%), Method: PREINCUBATION) “inactive; negative”. The mutagenic call by setting is: (Test System: AMES SALMONELLA TYPHIMURIUM, Strain/Indicator: TA1537, Metabolic Activation: HAMSTER, LIVER, S-9, AROCLOR 1254 (30%), Method: PREINCUBATION) “inactive; negative”; (Test System: AMES SALMONELLA TYPHIMURIUM, Strain/Indicator: TA1537, Metabolic Activation: NONE, Method: PREINCUBATION) “inactive; negative”; (Test System: AMES SALMONELLA TYPHIMURIUM, Strain/Indicator: TA1537, Metabolic Activation: RAT, LIVER, S-9, AROCLOR 1254 (30%), Method: PREINCUBATION) “inactive; negative”.

Turning to `NC(=O)N(CCCl)N=O`, the mutagenic call was “active; positive” (Test System: CHINESE HAMSTER V-79, Strain/Indicator: V-79/6-THIOGUANINE, Metabolic Activation: NONE, Method: STANDARD PLATE); “active; positive” (Test System: E. COLI B, Strain/Indicator: H/R30R, Metabolic Activation: NONE); “active; positive” (Test System: E. COLI B, Strain/Indicator: HS30R, Metabolic Activation: NONE).

For `CCCCCCCCCCCCOC(=O)CCSCCC(=O)OCCCCCCCCCCCC`, the mutagenic call under setting [3] is “inactive; negative”; the mutagenic call under setting [4] is “inactive; negative”; the mutagenic call under setting [5] is “inactive; negative”; the mutagenic call under setting [6] was “inactive; negative”; the mutagenic call (Test System: AMES SALMONELLA TYPHIMURIUM, Strain/Indicator: TA1535, Metabolic Activation: NONE, Method: STANDARD PLATE) was “inactive; negative”; the mutagenic call (Test System: AMES SALMONELLA TYPHIMURIUM, Strain/Indicator: TA1535, Metabolic Activation: RAT, LIVER, S-9, AROCLOR 1254, Method: STANDARD PLATE) is “inactive; negative”. Also, the mutagenic call is, setting by setting: (Test System: AMES SALMONELLA TYPHIMURIUM, Strain/Indicator: TA1537, Metabolic Activation: NONE, Method: STANDARD PLATE) “inactive; negative”; (Test System: AMES SALMONELLA TYPHIMURIUM, Strain/Indicator: TA1537, Metabolic Activation: RAT, LIVER, S-9, AROCLOR 1254, Method: STANDARD PLATE) “inactive; negative”; (Test System: AMES SALMONELLA TYPHIMURIUM, Strain/Indicator: TA1538, Metabolic Activation: NONE, Method: STANDARD PLATE) “inactive; negative”; (Test System: AMES SALMONELLA TYPHIMURIUM, Strain/Indicator: TA1538, Metabolic Activation: RAT, LIVER, S-9, AROCLOR 1254, Method: STANDARD PLATE) “inactive; negative”; (Test System: E. COLI, Strain/Indicator: WP2, Metabolic Activation: NONE, Method: STANDARD PLATE) “inactive; negative”; (Test System: E. COLI, Strain/Indicator: WP2, Metabolic Activation: RAT, LIVER, S-9, AROCLOR 1254, Method: STANDARD PLATE) “inactive; negative”.

For the compound `CN(C)c1ccc(C(=N)c2ccc(N(C)C)cc2)cc1`, the mutagenic call (Test System: AMES SALMONELLA TYPHIMURIUM, Strain/Indicator: TA97, Metabolic Activation: NONE, Method: STANDARD PLATE) is “inactive; negative”; the mutagenic call (Test System: AMES SALMONELLA TYPHIMURIUM, Strain/Indicator: TA97, Metabolic Activation: RAT, LIVER, S-9, AROCLOR 1254, Method: STANDARD PLATE) was “inactive; negative”; the mutagenic call (Test System: AMES SALMONELLA TYPHIMURIUM, Strain/Indicator: TA98, Metabolic Activation: HAMSTER, LIVER, S-9, AROCLOR 1254 (30%), Method: PREINCUBATION) was “active; positive”; the mutagenic call under setting [1] was “inactive; negative”; the mutagenic call under setting [3] was “inactive; negative”; the mutagenic call (Test System: AMES SALMONELLA TYPHIMURIUM, Strain/Indicator: TA98, Metabolic Activation: RAT, LIVER, S-9, AROCLOR 1254 (30%), Method: PREINCUBATION) was “active; positive”. The mutagenic call is “inactive; negative” under setting [4]; “inactive; negative” (Test System: AMES SALMONELLA TYPHIMURIUM, Strain/Indicator: TA100, Metabolic Activation: HAMSTER, LIVER, S-9, AROCLOR 1254 (30%), Method: PREINCUBATION); “inactive; negative” under setting [2]; “inactive; negative” under setting [5]; “inactive; negative” (Test System: AMES SALMONELLA TYPHIMURIUM, Strain/Indicator: TA100, Metabolic Activation: RAT, LIVER, S-9, AROCLOR 1254 (30%), Method: PREINCUBATION); “inactive; negative” under setting [6]. For the same compound, the mutagenic call runs as follows: (Test System: AMES SALMONELLA TYPHIMURIUM, Strain/Indicator: TA1538, Metabolic Activation: HAMSTER, LIVER, S-9, AROCLOR 1254 (30%), Method: PREINCUBATION) “active; positive”; (Test System: AMES SALMONELLA TYPHIMURIUM, Strain/Indicator: TA1538, Metabolic Activation: RAT, LIVER, S-9, AROCLOR 1254 (30%), Method: PREINCUBATION) “active; positive”; (Test System: CHINESE HAMSTER V-79, Strain/Indicator: V-79/6-THIOGUANINE, Metabolic Activation: NONE, Method: SUSPENSION/PLATE) “inactive; negative”; (Test System: CHINESE HAMSTER V-79, Strain/Indicator: V-79/6-THIOGUANINE, Metabolic Activation: RAT, LIVER, S-9, PHENOBARBITAL AND BETA-NAPHTHOFLAVONE, Method: SUSPENSION/PLATE) “active; positive”.

For `CCCCN(C[C@H](CO)OCc1ccccc1)N=O`, the mutagenic call runs as follows: under setting [2], “inactive; negative”; (Test System: AMES SALMONELLA TYPHIMURIUM, Strain/Indicator: TA100, Metabolic Activation: RAT, LIVER, S-9, PCB, Method: PREINCUBATION) “active; positive”.
